# Reference: ChEMBL document CHEMBL4680314, “Discovery of potent glycogen synthase kinase 3/cholinesterase inhibitors with neuroprotection as potential therapeutic agent for Alzheimer's disease” (Bioorg Med Chem, 2021)
# Biological target: Acetylcholinesterase (Homo sapiens, UniProt P22303)
# Assay: Inhibition of human recombinant AChE expressed in HEK293 cells using acetylthiocholine iodide as substrate incubated for 10 mins by Ellman's method
# Format: cell-based
# Conditions: not given
# Chain of Acetylcholinesterase (P22303 whole entry): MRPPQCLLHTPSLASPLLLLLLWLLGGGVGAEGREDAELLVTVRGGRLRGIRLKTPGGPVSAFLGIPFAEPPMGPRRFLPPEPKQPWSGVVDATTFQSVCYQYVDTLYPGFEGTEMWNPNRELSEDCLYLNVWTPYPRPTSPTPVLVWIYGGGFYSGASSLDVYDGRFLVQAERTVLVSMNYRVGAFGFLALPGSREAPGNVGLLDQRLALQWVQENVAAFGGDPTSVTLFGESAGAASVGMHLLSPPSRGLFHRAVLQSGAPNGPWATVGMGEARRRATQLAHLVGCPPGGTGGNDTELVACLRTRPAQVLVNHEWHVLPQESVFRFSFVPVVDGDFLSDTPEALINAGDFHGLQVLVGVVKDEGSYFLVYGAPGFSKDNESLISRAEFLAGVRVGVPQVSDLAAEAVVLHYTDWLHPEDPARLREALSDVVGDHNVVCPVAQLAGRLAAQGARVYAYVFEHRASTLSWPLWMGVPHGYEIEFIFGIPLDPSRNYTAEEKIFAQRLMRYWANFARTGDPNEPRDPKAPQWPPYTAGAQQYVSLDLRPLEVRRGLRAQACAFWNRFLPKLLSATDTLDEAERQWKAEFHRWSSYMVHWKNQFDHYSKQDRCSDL
row,SMILES,IC50
1,NC(=O)c1sc(-c2ccnc(NC(=O)C3CC3)c2)nc1OCCC1CCN(Cc2ccc(F)c(F)c2)CC1,42.8 µM
2,CNC(=O)c1sc(-c2ccnc(NC(=O)C3CC3)c2)nc1OCC1CCN(Cc2ccccc2)CC1,8 µM
3,NC(=O)c1sc(-c2ccnc(NC(=O)C3CC3)c2)nc1OCCC1CCN(Cc2ccccc2Cl)CC1,3.7 µM
4,CNC(=O)c1sc(-c2ccnc(NC(=O)C3CC3)c2)nc1OCC1CCN(Cc2ccc(F)c(F)c2)CC1,80 µM
5,CNC(=O)c1sc(-c2ccnc(NC(=O)C3CC3)c2)nc1OCC1CCN(Cc2ccc(Cl)c(Cl)c2)CC1,97 µM
6,NC(=O)c1sc(-c2ccnc(NC(=O)C3CC3)c2)nc1OCCC1CCN(Cc2ccccc2F)CC1,7.8 µM
7,NC(=O)c1sc(-c2ccnc(NC(=O)C3CC3)c2)nc1OCCC1CCN(Cc2ccccn2)CC1,6.6 µM
8,NC(=O)c1sc(-c2ccnc(NC(=O)C3CC3)c2)nc1OCCC1CCN(Cc2cccc(F)c2)CC1,4.7 µM
9,CNC(=O)c1sc(-c2ccnc(NC(=O)C3CC3)c2)nc1OCC1CCN(Cc2ccccc2F)CC1,9 µM
10,NC(=O)c1sc(-c2ccnc(NC(=O)C3CC3)c2)nc1OCCCC1CCN(Cc2cccc(F)c2)CC1,3 µM

# System: not listed separately
# Assay: in vitro
# Conditions: PAMPA
# Description: Effective permeability of compound in PBS/EtOH buffer (7:3) at 25 ug/ml incubated for 18 hrs by PAMPA-BBB assay
row,SMILES,"Papp at 18 h, 25 ug/ml"
1,CCn1cc(C(=O)O)c(=O)c2cc(F)c(N3CCNC(C)C3)c(F)c21 (stereo unspecified) [LOMEFLOXACIN],0.9 ×10⁻⁶ cm/s
2,CCn1cc(C(=O)O)c(=O)c2ccc(-n3cccc3)cc21,2.5 ×10⁻⁶ cm/s
3,NC(=O)c1sc(-c2ccnc(NC(=O)C3CC3)c2)nc1OCCC1CCN(Cc2ccccc2Cl)CC1,6.8 ×10⁻⁶ cm/s
4,NC(=O)c1sc(-c2ccnc(NC(=O)C3CC3)c2)nc1OCCC1CCN(Cc2cccc(F)c2)CC1,7 ×10⁻⁶ cm/s
5,NC(=O)c1sc(-c2ccnc(NC(=O)C3CC3)c2)nc1OCCCC1CCN(Cc2cccc(F)c2)CC1,8.6 ×10⁻⁶ cm/s

# Biological target: Cholinesterase (Homo sapiens, UniProt P06276)
# Sequence (P06276 whole entry): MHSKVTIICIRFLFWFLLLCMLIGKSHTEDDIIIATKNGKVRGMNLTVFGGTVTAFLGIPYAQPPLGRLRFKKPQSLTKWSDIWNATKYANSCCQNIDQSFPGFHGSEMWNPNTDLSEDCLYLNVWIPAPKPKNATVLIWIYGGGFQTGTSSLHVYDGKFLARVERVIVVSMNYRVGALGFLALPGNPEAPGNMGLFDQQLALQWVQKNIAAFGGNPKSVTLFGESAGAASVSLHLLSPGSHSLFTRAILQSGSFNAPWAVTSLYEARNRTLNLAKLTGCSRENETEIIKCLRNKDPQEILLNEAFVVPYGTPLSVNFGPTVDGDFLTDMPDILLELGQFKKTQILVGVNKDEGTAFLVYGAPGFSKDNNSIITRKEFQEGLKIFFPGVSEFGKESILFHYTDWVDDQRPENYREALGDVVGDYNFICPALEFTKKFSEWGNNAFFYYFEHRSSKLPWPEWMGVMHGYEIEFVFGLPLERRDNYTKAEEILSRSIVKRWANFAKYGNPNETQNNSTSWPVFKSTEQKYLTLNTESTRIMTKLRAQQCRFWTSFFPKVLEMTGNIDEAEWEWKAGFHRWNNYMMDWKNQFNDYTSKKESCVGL
# Assay: Inhibition of human BChE using butyrylthiocholineiodide as substrate incubated for 10 mins by Ellman's method
# Conditions: not given
row,SMILES,IC50
1,NC(=O)c1sc(-c2ccnc(NC(=O)C3CC3)c2)nc1OCCC1CCN(Cc2ccc(F)c(F)c2)CC1,7.2 µM
2,CNC(=O)c1sc(-c2ccnc(NC(=O)C3CC3)c2)nc1OCC1CCN(Cc2ccccc2)CC1,14 µM
3,NC(=O)c1sc(-c2ccnc(NC(=O)C3CC3)c2)nc1OCCC1CCN(Cc2ccccc2Cl)CC1,301 µM
4,CNC(=O)c1sc(-c2ccnc(NC(=O)C3CC3)c2)nc1OCC1CCN(Cc2ccc(F)c(F)c2)CC1,20 µM
5,CNC(=O)c1sc(-c2ccnc(NC(=O)C3CC3)c2)nc1OCC1CCN(Cc2ccc(Cl)c(Cl)c2)CC1,65 µM
6,NC(=O)c1sc(-c2ccnc(NC(=O)C3CC3)c2)nc1OCCC1CCN(Cc2ccccc2F)CC1,41 µM
7,NC(=O)c1sc(-c2ccnc(NC(=O)C3CC3)c2)nc1OCCC1CCN(Cc2ccccn2)CC1,86.1 µM
8,NC(=O)c1sc(-c2ccnc(NC(=O)C3CC3)c2)nc1OCCC1CCN(Cc2cccc(F)c2)CC1,295 µM
9,CNC(=O)c1sc(-c2ccnc(NC(=O)C3CC3)c2)nc1OCC1CCN(Cc2ccccc2F)CC1,11 µM
10,NC(=O)c1sc(-c2ccnc(NC(=O)C3CC3)c2)nc1OCCCC1CCN(Cc2cccc(F)c2)CC1,1.8 µM

# Biological target: Glycogen synthase kinase-3 beta (Homo sapiens, UniProt P49841)
# Sequence (P49841 whole entry): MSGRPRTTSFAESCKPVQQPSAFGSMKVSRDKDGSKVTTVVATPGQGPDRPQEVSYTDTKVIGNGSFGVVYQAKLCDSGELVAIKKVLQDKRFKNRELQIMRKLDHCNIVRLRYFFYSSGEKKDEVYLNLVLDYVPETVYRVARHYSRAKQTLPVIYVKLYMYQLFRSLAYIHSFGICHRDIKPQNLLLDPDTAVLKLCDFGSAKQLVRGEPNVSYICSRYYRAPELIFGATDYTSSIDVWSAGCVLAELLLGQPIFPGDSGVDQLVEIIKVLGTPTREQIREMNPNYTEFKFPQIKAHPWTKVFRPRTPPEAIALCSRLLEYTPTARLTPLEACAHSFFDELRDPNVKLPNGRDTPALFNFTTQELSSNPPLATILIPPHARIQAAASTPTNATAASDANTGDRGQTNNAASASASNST
# Assay: biochemical
# Conditions: not given
row,SMILES,IC50
1,COc1cc2c(cc1OC)C(=O)C(CC1CCN(Cc3ccccc3)CC1)C2 (stereo unspecified) [DONEPEZIL],> 1 µM
2,NC(=O)c1sc(-c2ccnc(NC(=O)C3CC3)c2)nc1OCCC1CCN(Cc2ccc(F)c(F)c2)CC1,0.01 µM
3,CNC(=O)c1sc(-c2ccnc(NC(=O)C3CC3)c2)nc1OCC1CCN(Cc2ccccc2)CC1,0.016 µM
4,NC(=O)c1sc(-c2ccnc(NC(=O)C3CC3)c2)nc1OCCC1CCN(Cc2ccccc2Cl)CC1,0.027 µM
5,CNC(=O)c1sc(-c2ccnc(NC(=O)C3CC3)c2)nc1OCC1CCN(Cc2ccc(F)c(F)c2)CC1,0.062 µM
6,CNC(=O)c1sc(-c2ccnc(NC(=O)C3CC3)c2)nc1OCC1CCN(Cc2ccc(Cl)c(Cl)c2)CC1,0.041 µM
7,NC(=O)c1sc(-c2ccnc(NC(=O)C3CC3)c2)nc1OCCC1CCN(Cc2ccccc2F)CC1,0.261 µM
8,NC(=O)c1sc(-c2ccnc(NC(=O)C3CC3)c2)nc1OCCC1CCN(Cc2ccccn2)CC1,0.193 µM
9,NC(=O)c1sc(-c2ccnc(NC(=O)C3CC3)c2)nc1OCCC1CCN(Cc2cccc(F)c2)CC1,0.026 µM
10,CNC(=O)c1sc(-c2ccnc(NC(=O)C3CC3)c2)nc1OCC1CCN(Cc2ccccc2F)CC1,0.014 µM
11,NC(=O)c1sc(-c2ccnc(NC(=O)C3CC3)c2)nc1OCCCC1CCN(Cc2cccc(F)c2)CC1,0.009 µM
